Results as given in PubChem BioAssay (NCI).
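The compound was tested at five concentrations on cells cultured in 96-well plates, with a 48-hour exposure period. GI50 is the concentration that inhibits growth by half. At the TGI there is no net growth.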

Key:
Experiment in all cases: NCI anticancer screen, dose series, 48 h
SK-MEL-2 melanoma = tested on: SK-MEL-2 melanoma
BT-549 breast = tested on: BT-549 breast
OVCAR-8 ovarian = tested on: OVCAR-8 ovarian
PC-3 prostate = tested on: PC-3 prostate
HS 578T breast = tested on: HS 578T breast
786-0 renal = tested on: 786-0 renal
SK-OV-3 ovarian = tested on: SK-OV-3 ovarian
SNB-19 CNS = tested on: SNB-19 CNS
NCI-H226 lung = tested on: NCI-H226 lung
SN12C renal = tested on: SN12C renal

| Structure (SMILES) | GI50 (SK-MEL-2 melanoma) [µM] | TGI (SK-MEL-2 melanoma) [µM] | GI50 (BT-549 breast) [µM] | TGI (BT-549 breast) [µM] | GI50 (OVCAR-8 ovarian) [µM] | TGI (OVCAR-8 ovarian) [µM] | GI50 (PC-3 prostate) [µM] | TGI (PC-3 prostate) [µM] | GI50 (HS 578T breast) [µM] | TGI (HS 578T breast) [µM] | GI50 (786-0 renal) [µM] | TGI (786-0 renal) [µM] | GI50 (SK-OV-3 ovarian) [µM] | TGI (SK-OV-3 ovarian) [µM] | GI50 (SNB-19 CNS) [µM] | TGI (SNB-19 CNS) [µM] | GI50 (NCI-H226 lung) [µM] | TGI (NCI-H226 lung) [µM] | GI50 (SN12C renal) [µM] | TGI (SN12C renal) [µM] |
| --- | --- | --- | --- | --- | --- | --- | --- | --- | --- | --- | --- | --- | --- | --- | --- | --- | --- | --- | --- | --- |
| O=[N+]([O-])c1cc2c(ccc3occc32)o1 | 2.03 | 4.56 | 1.87 | 4.4 | 2.45 | 21 | 10.2 | 38.4 | 4.29 | 70.2 | 2.37 | 5 | 3.03 | 9.66 | 3.78 | 45.9 | 4.04 | 31.7 | 2.96 | > 100 |
| CN(C)c1ncnc2c1ccn2C1OC(CO)C(O)C1O (centres undefined) | > 100 | > 100 | 3.98 | > 100 | 0.89 | 6.81 | 0.477 | 11.5 | 2.71 | 40.2 | 3.98 | 97.8 | 0.884 | 21.4 | 44.5 | > 100 | > 100 | > 100 | 2.62 | > 100 |
| CCCC(CCC)C(=O)OCC1(CO)C/C(=C\c2ccc(C(F)(F)F)cc2)C(=O)O1 (centres undefined) | 18.6 | 36 | 7.04 | 21 | 21 | 41 | 12.3 | 25.4 | 12.1 | 30 | 10.1 | 22.5 | 19.7 | 34 | 16.8 | 30.6 | 14.1 | 33.1 | 11.9 | 25.7 |
| CNc1ncc2cc(Oc3ccc(F)cc3F)c(=O)n(C)c2n1 | > 25 | > 25 | > 25 | > 25 | > 25 | > 25 | > 25 | > 25 | > 25 | > 25 | > 25 | > 25 | > 25 | > 25 | > 25 | > 25 | > 25 | > 25 | > 25 | > 25 |
| CCC(=O)c1c(C(F)(F)F)n([O-])c2ccccc2[n+]1=O | 14.9 | > 100 | 2 | 6.13 | 1.77 | > 32 | 0.629 | 5.34 | 3.17 | 30.5 | 1.66 | 8.17 | 3.05 | 14 | 5.07 | 32.6 | 2.09 | 9.06 | 1.98 | 7.29 |
| CC1=NN(C(=O)c2nn(-c3ccc(Cl)cc3)cc2O)C(=O)C1 | 53.7 | > 100 | 0.766 | > 100 | 1.49 | > 100 | 0.348 | > 100 | 0.34 | > 100 | 5.33 | > 60.4 | 1.79 | > 100 | 3.16 | > 100 | 3.17 | > 67.5 | 1.81 | > 100 |
| C=C1C(=O)O[C@H]2[C@H]1CC/C(CNC(=O)/C=C/c1ccc(Cl)cc1Cl)=C\CC[C@@]1(C)O[C@@H]21 | 1.55 | 3.63 | 0.975 | 2.59 | 1.37 | 3.44 | 1.42 | 4.4 | 2.09 | 8.23 | 1.2 | 2.56 | 3.33 | 13 | 3.24 | 14.2 | 2.33 | 5.72 | 1.73 | 4.08 |
| COc1ccc2c(c1)C=C1CSCC3=Cc4cc(OC)ccc4OC13O2 | 0.625 | > 100 | 0.816 | > 100 | 0.522 | > 100 | 0.36 | > 100 | 0.313 | > 100 | 0.821 | > 100 | 0.671 | > 100 | 0.552 | > 100 | – | > 100 | 0.723 | > 100 |
| Cc1c(C(N)=O)sc2c1c(=O)n(Cc1ccccc1)c1nnc(S(=O)(=O)CC(=O)Nc3ccc(Cl)cc3)n21 | 2.83 | 7.18 | 2.92 | 14.9 | 3.69 | 15.6 | 2.58 | 9.3 | 2.67 | > 100 | 3.07 | 12.2 | 3.24 | 7.81 | 7.7 | 23.3 | 4.83 | 19.8 | 4.67 | 28.2 |
| CN(CCCN(C)CCC1CCCCC1)CCC1CCCCC1 | 2.19 | 4.84 | 2.64 | 11.1 | 4.85 | 18.4 | 2.62 | 15.4 | 2.26 | 6.68 | 3.46 | 13.7 | 5.34 | 17.1 | 3.76 | 9.98 | 2.57 | 11.9 | 6.49 | 20.6 |
